# From ChEMBL document CHEMBL1201862, “PubChem BioAssay data set” (2004)
#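 Results reflect a 48-hour exposure of cells in 96-well plates to compound at five concentrations. Abbreviation: GI50, concentration required for 50% inhibition of growth.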 The source made the active and inactive calls. No stated cut-off is given here; in the data, active = GI50 up to about 1.1 µM and inactive = higher.
# Experiments:
# Assay in all cases: NCI-60 cell line screen, 48 h
# 786-0 = tested on: 786-0
# SW-620 = tested on: SW-620
# UACC-257 = tested on: UACC-257
# SF-539 = tested on: SF-539
# NCI-H522 = tested on: NCI-H522
# IGROV-1 = tested on: IGROV-1
# HCT-15 = tested on: HCT-15
# MCF7 = tested on: MCF7
# NCI-H23 = tested on: NCI-H23
# CAKI-1 = tested on: CAKI-1
# COLO 205 = tested on: COLO 205
# SF-268 = tested on: SF-268
# SF-295 = tested on: SF-295
# NCI/ADR-RES = tested on: NCI/ADR-RES
# CCRF-CEM = tested on: CCRF-CEM
# MOLT-4 = tested on: MOLT-4
# HOP-62 = tested on: HOP-62
# U-251 = tested on: U-251
# MDA-MB-435 = tested on: MDA-MB-435
# NCI-H226 = tested on: NCI-H226
SMILES,GI50 (786-0),GI50 (SW-620),GI50 (UACC-257),GI50 (SF-539),GI50 (NCI-H522),GI50 (IGROV-1),GI50 (HCT-15),GI50 (MCF7),GI50 (NCI-H23),GI50 (CAKI-1),GI50 (COLO 205),GI50 (SF-268),GI50 (SF-295),GI50 (NCI/ADR-RES),GI50 (CCRF-CEM),GI50 (MOLT-4),GI50 (HOP-62),GI50 (U-251),GI50 (MDA-MB-435),GI50 (NCI-H226)
COC(C(O)CO)C(O)C(O)C(=O)NNc1ccccc1 (stereo not drawn),> 100 µM (inactive),8.49 µM (inactive),> 100 µM (inactive),22.4 µM (inactive),> 100 µM (inactive),47.4 µM (inactive),> 100 µM,39.2 µM (inactive),> 100 µM (inactive),18.6 µM (inactive),11.7 µM (inactive),23.3 µM (inactive),21 µM (inactive),16.5 µM (inactive),42.7 µM (inactive),> 100 µM (inactive),> 100 µM (inactive),> 100 µM (inactive),40.3 µM (inactive),
CC(=O)C(C)C(=O)N1C(=O)N(C)C2(C)N(C)C(=O)NC12C (stereo not drawn),> 100 µM (inactive),,,> 100 µM (inactive),> 100 µM (inactive),> 100 µM (inactive),> 100 µM,> 100 µM (inactive),> 100 µM (inactive),> 100 µM (inactive),> 100 µM (inactive),> 100 µM (inactive),> 100 µM (inactive),> 100 µM (inactive),,,> 100 µM (inactive),> 100 µM (inactive),> 100 µM (inactive),
c1ccc2c(c1)SCCCSCCSCCCS2,> 100 µM (inactive),> 100 µM (inactive),> 100 µM (inactive),> 100 µM (inactive),> 100 µM (inactive),> 100 µM (inactive),> 100 µM,> 100 µM (inactive),> 100 µM (inactive),,> 100 µM (inactive),> 100 µM (inactive),> 100 µM (inactive),> 100 µM (inactive),> 100 µM (inactive),> 100 µM (inactive),> 100 µM (inactive),> 100 µM (inactive),> 100 µM (inactive),
CC12CC(c3ccccc3O1)C(C(=O)Nc1cccc(F)c1)C(=O)N2 (stereo not drawn),> 100 µM (inactive),84.9 µM (inactive),40.2 µM (inactive),> 100 µM (inactive),> 100 µM (inactive),40.7 µM (inactive),42.9 µM,44.7 µM (inactive),17.3 µM (inactive),92.3 µM (inactive),62.7 µM (inactive),> 100 µM (inactive),64 µM (inactive),26.6 µM (inactive),26.3 µM (inactive),18.8 µM (inactive),> 100 µM (inactive),> 100 µM (inactive),38.8 µM (inactive),
Cc1ccc(/C=C2\CCS(=O)(=O)c3ccccc3C2=O)cc1,16.3 µM (inactive),18.1 µM (inactive),18.5 µM (inactive),12.7 µM (inactive),,11.4 µM (inactive),11.9 µM,11.9 µM (inactive),15.5 µM (inactive),18.3 µM (inactive),15.2 µM (inactive),18.3 µM (inactive),19.2 µM (inactive),11.5 µM (inactive),13.8 µM (inactive),9.1 µM (inactive),26.7 µM (inactive),14 µM (inactive),20.6 µM (inactive),16.6 µM (inactive)
C=CC(CCc1ccc(C(=O)OCC)cc1)c1c(N)nc(N)[nH]c1=O (stereo not drawn),> 100 µM (inactive),> 100 µM (inactive),35.1 µM (inactive),> 100 µM (inactive),,> 100 µM (inactive),> 100 µM,87.7 µM (inactive),91.8 µM (inactive),86.3 µM (inactive),> 100 µM (inactive),> 100 µM (inactive),57.8 µM (inactive),> 100 µM (inactive),73.3 µM (inactive),59.4 µM (inactive),> 100 µM (inactive),> 100 µM (inactive),> 100 µM (inactive),84.9 µM (inactive)
COc1ccc(/C=C(/c2ccc(OC)cc2)c2c(Cl)cc(Cl)c(/C(=C\c3ccc(OC)cc3)c3ccc(OC)cc3)c2/N=N/c2ccccc2)cc1,> 100 µM (inactive),> 100 µM (inactive),39.7 µM (inactive),34.4 µM (inactive),> 100 µM (inactive),> 100 µM (inactive),> 100 µM,62.1 µM (inactive),> 100 µM (inactive),> 100 µM (inactive),> 100 µM (inactive),> 100 µM (inactive),> 100 µM (inactive),> 100 µM (inactive),50.1 µM (inactive),88.7 µM (inactive),> 100 µM (inactive),66.4 µM (inactive),> 100 µM (inactive),
O=P(Oc1ccccc1)(Oc1ccccc1)Oc1c[nH]c2ccccc12,15.5 µM (inactive),13.4 µM (inactive),8.55 µM (inactive),11.4 µM (inactive),,4.07 µM (inactive),12.8 µM,11 µM (inactive),10.1 µM (inactive),4.13 µM (inactive),2.37 µM (inactive),11.1 µM (inactive),3.28 µM (inactive),3.45 µM (inactive),0.141 µM (active),6.53 µM (inactive),14.9 µM (inactive),12.3 µM (inactive),12.2 µM (inactive),9.68 µM (inactive)
Cc1cc(C)nc(NS(=O)(=O)c2ccc(Nc3c4ccccc4nc4c(C(=O)NCCO)cccc34)cc2)n1,> 10 µM (inactive),16.7 µM (inactive),> 10 µM (inactive),,12.3 µM (inactive),25.8 µM (inactive),17.8 µM,18 µM (inactive),23.8 µM (inactive),23.3 µM (inactive),15.1 µM (inactive),14.5 µM (inactive),11.8 µM (inactive),48.5 µM (inactive),10.3 µM (inactive),4.79 µM (inactive),9.31 µM (inactive),17.1 µM (inactive),16.6 µM (inactive),
COCP1(=S)OC(C)CCN1C(C)C (stereo not drawn),> 100 µM (inactive),> 100 µM (inactive),> 100 µM (inactive),> 100 µM (inactive),,> 100 µM (inactive),> 100 µM,> 100 µM (inactive),> 100 µM (inactive),> 100 µM (inactive),> 100 µM (inactive),> 100 µM (inactive),> 100 µM (inactive),> 100 µM (inactive),,,> 100 µM (inactive),> 100 µM (inactive),> 100 µM (inactive),> 100 µM (inactive)
CC(C)=CCC[C@](C)(O[C@@H]1O[C@H](CO)[C@@H](O)[C@H](O)[C@H]1O)[C@H]1CC[C@]2(C)[C@@H]1[C@H](O)C[C@@H]1[C@@]3(C)CC[C@H](O)C(C)(C)[C@@H]3[C@@H](O[C@@H]3O[C@H](CO)[C@@H](O)[C@H](O)[C@H]3O)C[C@]12C [GINSENOSIDE RG1],> 100 µM (inactive),> 100 µM (inactive),> 100 µM (inactive),> 100 µM (inactive),> 100 µM (inactive),> 100 µM (inactive),> 100 µM,> 100 µM (inactive),> 100 µM (inactive),> 100 µM (inactive),> 100 µM (inactive),> 100 µM (inactive),> 100 µM (inactive),,> 100 µM (inactive),,> 100 µM (inactive),> 100 µM (inactive),> 100 µM (inactive),> 100 µM (inactive)
CN(CCNC(=O)c1cn(C)c2c1ccc1ccccc12)CCNC(=O)c1cn(C)c2c1ccc1ccccc12,2.04 µM (inactive),2.7 µM (inactive),2.12 µM (inactive),1.76 µM (inactive),,1.62 µM (inactive),1.26 µM,1.51 µM (inactive),3.14 µM (inactive),2.47 µM (inactive),,2.69 µM (inactive),3.05 µM (inactive),7.82 µM (inactive),2.44 µM (inactive),2.55 µM (inactive),1.85 µM (inactive),2.04 µM (inactive),2.2 µM (inactive),5.55 µM (inactive)
COc1ccc(-c2c(/C=N/OCC(=O)O)c3sc4ccccc4n3c2/C=N/OCC(=O)O)cc1,> 50 µM (inactive),> 50 µM (inactive),> 50 µM (inactive),,> 50 µM (inactive),> 50 µM (inactive),> 50 µM,> 50 µM (inactive),> 50 µM (inactive),> 50 µM (inactive),> 50 µM (inactive),> 50 µM (inactive),> 50 µM (inactive),> 50 µM (inactive),> 50 µM (inactive),> 50 µM (inactive),> 50 µM (inactive),> 50 µM (inactive),> 50 µM (inactive),
CNC(=S)N/N=C(\C)c1ccc(OC)cc1O,> 100 µM (inactive),> 100 µM (inactive),> 100 µM (inactive),> 100 µM (inactive),2.72 µM (inactive),22.5 µM (inactive),16 µM,,> 100 µM (inactive),> 100 µM (inactive),0.258 µM (active),> 100 µM (inactive),> 100 µM (inactive),28.8 µM (inactive),0.865 µM (active),3.33 µM (inactive),> 100 µM (inactive),> 73.5 µM (inactive),> 100 µM (inactive),73.8 µM (inactive)
O=C(CC(C(=O)c1cccs1)c1ccsc1)c1ccc(Cl)s1 (stereo not drawn),> 100 µM (inactive),> 100 µM (inactive),67.9 µM (inactive),> 100 µM (inactive),,> 100 µM (inactive),73.3 µM,97.1 µM (inactive),> 100 µM (inactive),> 100 µM (inactive),> 100 µM (inactive),> 100 µM (inactive),,12.1 µM (inactive),> 100 µM (inactive),47.3 µM (inactive),> 100 µM (inactive),> 100 µM (inactive),85.7 µM (inactive),> 100 µM (inactive)
